Five molecules from US20210338615A1, “Inhibition of Acetyl-CoA Metabolism for Treatment and Prevention of Immune System Diseases and Disorders” (Memorial Sloan Kettering Cancer Center, priority 2016, published 2021) can be followed below.

Molecules are shown by their SMILES.

For experiment [1], the system named is CD4+ T cells differentiated under Th1 conditions. As to the kind of experiment: IFN-γ expression in CD4+ T cells differentiated under Th1 conditions (intracellular staining, flow cytometry). The format is cell-based, mouse. As to conditions: for IFN-γ expression in KO T cells: LDHA-deficient (KO) Th1 cells, 20 mM sodium acetate or 30 nM TSA for another 24 h, PMA and ionomycin 4 h; for IFN-γ expression: WT naïve CD4+ T cells under Th1 conditions, inhibitor added for another 24 h, re-stimulated with PMA and ionomycin 4 h. As to the method: Panels D and E show naïve WT or KO CD4^+ T cells differentiated under Th1 conditions for 3 days, and either left untreated or supplemented with 20 mM sodium acetate for another 24 h.
(§1) IFN-γ expression was determined by intracellular staining. […] Cell viability was determined by LIVE/DEAD staining. […] Data represent mean±SD, n=3. […] Data represent mean±SD, n=3. Two-tailed unpaired t-test, **P≤0.01. […] Data represent mean±SD, n=4.
Naïve CD4^+ T cells isolated from wild-type mice were differentiated under Th1 conditions for 3 days. DMSO or indicated concentration of Fx11 was added to the cell culture for another 24 h, with or without 20 mM sodium acetate. […] IFN-γ expression was determined by intracellular staining. Representative plots (panel A) and quantification (panel B) are shown.
(§2) Cells from thymi, spleens, and lymph nodes were depleted of erythrocytes by hypotonic lysis. Cells were incubated with specific antibodies for 15 min on ice in the presence of anti-FcγR to block FcγR binding. Dead cells were excluded by DAPI (Invitrogen) staining. To determine cytokine expression, cells were stimulated with 50 ng/mL phorbol 12-myristate 13-acetate (Sigma) and 1 μM ionomycin (Sigma) in the presence of GolgiStop (BD Biosciences) for 4 h. After stimulation, cells were stained with cell-surface marker antibodies and LIVE/DEAD Fixable dye (Invitrogen) to exclude dead cells, fixed, and permeabilized with a transcription factor staining kit (eBioscience), followed by staining with cytokine antibodies. All samples were acquired with an LSR II flow cytometer (Becton, Dickinson) and analyzed with FlowJo software (TreeStar).
CD62L^+CD44^−CD25^−CD4^+ T cells were isolated from spleen and peripheral lymph nodes of wild-type (WT) or CD4^CreLdha^fl/fl (KO) mice with naïve CD4^+ T cells isolation kits (Miltenyi or Stem Cell). Purity was checked by flow cytometry, and was over 98%. For in vitro T cell activation, 0.2-0.5×10^6 naïve CD4^+ T cells were cultured on a 24-well plate pre-coated with 5 μg/mL anti-CD3 in T cell medium [RPMI/1640, 10% fetal bovine serum, 2 mM glutamine, 1 mM sodium pyruvate, 1× non-essential amino acid (Invitrogen), 10 mM HEPES, 55 μM 2-mercaptoethanol, 100 U/ml penicillin, […]] supplemented with 2 μg/mL anti-CD28 and 100 U/ml IL-2. For T helper 1 (Th1) cell differentiation, T cells were cultured with the addition of 10 μg/mL anti-IL-4 and 10 ng/mL IL-12. For T helper 17 (Th17) cell differentiation, T cells were cultured with the addition of 10 μg/mL anti-IL-4, 10 μg/mL anti-IFN-γ, 10 μg/mL anti-IL-2, 2 ng/ml TGF-β, 10 ng/ml IL-6, 10 ng/ml IL-23, and 10 ng/mL […]. For cell proliferation experiments, naïve CD4^+ T cells were labeled with CFSE (Invitrogen), and activated on a 24-well plate, pre-coated with 5 μg/mL anti-CD3, in T cell culture medium supplemented with 2 μg/mL anti-CD28 and 100 U/mL IL-2. CFSE dilution was assessed by flow cytometry on days 1, 2, and 3 post-activation. For sodium acetate and TSA treatment experiment, cells were differentiated under Th1 conditions for 3 days, and cultured in T cell medium supplemented with 100 U/mL IL-2, 10 μg/mL anti-IL-4, 10 ng/mL IL-12, and the indicated concentrations of sodium acetate (Sigma), TSA (Promega), or […] for 24 h. For ATP citrate lyase (ACL) inhibitor experiments, naïve CD4^+ T cells isolated from WT mice were cultured under Th1 conditions for 2 days or under Th17 conditions for 3 days. […]
(In flow cytometry, cells or beads pass a laser one at a time.)

The test system is the same in experiment [2]. As to the kind of experiment: T-bet expression in Th1 cells by flow cytometry. The format is cell-based, mouse. As to conditions: WT or KO Th1 cells, 20 mM sodium acetate or 30 nM TSA for another 24 h. As to the method: as §1, §2
CD62L^+CD44^−CD25^−CD4^+ T cells were isolated from spleen and peripheral lymph nodes of wild-type (WT) or CD4^CreLdha^fl/fl (KO) mice with naïve CD4^+ T cells isolation kits (Miltenyi or Stem Cell). […] CFSE dilution was assessed by flow cytometry on days 1, 2, and 3 post-activation. […]

Experiment [3] deals with H3K9Ac at the Ifng locus. Nature of the experiment: H3K9Ac at the Ifng promoter and CNS22 enhancer regions by ChIP-qPCR. The format is cell-based, mouse. The settings on record: KO Th1 cells, 20 mM sodium acetate or 30 nM TSA for 24 h; normalized to Cd3e promoter. On the technique in general: In qPCR the cycle at which signal appears reflects the starting amount.
Description: Enrichment was normalized to H3K9Ac at the Cd3e promoter region. […] Cells were subsequently re-stimulated with phorbol myristate acetate (PMA) and ionomycin for 4 h.
In panels A-D, naïve CD4^+ T cells isolated from wild-type (WT) mice were differentiated under Th1 conditions for 2 days. […] Subsequently, cells were re-stimulated with phorbol myristate acetate (PMA) and ionomycin for 4 h. IFN-γ expression was determined by intracellular staining. […] Cell viability was determined by LIVE/DEAD staining. […] Data represent mean±SD, n=3. Two-tailed unpaired t-test, *P≤0.05; **P≤0.01; ns, not significant. […] Acetyl-CoA levels were measured by an acetyl-CoA assay kit. Data represent mean±SD, n=3. Two-tailed unpaired t-test, **P≤0.01. […] The expression of T-bet was determined by flow cytometry. Panels G and H show naïve CD4^+ T cells isolated from WT or KO mice, differentiated under Th1 conditions for 3 days. […] The expression of IFN-γ (panel G) and T-bet (panel H) were determined by flow cytometry. […]
Chromatin immunoprecipitations were performed with SimpleChIP Enzymatic Chromatin IP Kit (Cell Signaling) according to manufacturer's instructions. […] The relative abundance of precipitated DNA fragments was analyzed by qPCR using Power SYBR Green PCR Master Mix (Qiagen) and the enrichments were normalized to Cd3e promoter.
The subject of experiment [4] is CD4CreLdhafl/fl (KO) CD4+ T cells differentiated under Th1 conditions. As to conditions: 20 mM sodium acetate for 24 h.
Description: In panels A-D, naïve CD4^+ T cells isolated from wild-type (WT) mice were differentiated under Th1 conditions for 2 days. DMSO or the ATP citrate lyase inhibitor (ACLi) BMS-303141 was added to the culture for another 24 h. Subsequently, cells were re-stimulated with phorbol myristate acetate (PMA) and ionomycin for 4 h. IFN-γ expression was determined by intracellular staining. […] Cell viability was determined by LIVE/DEAD staining. […] Data represent mean±SD, n=3. Two-tailed unpaired t-test, *P≤0.05; **P≤0.01; ns, not significant. […] Acetyl-CoA levels were measured by an acetyl-CoA assay kit. Data represent mean±SD, n=3. Two-tailed unpaired t-test, **P≤0.01. […] The expression of T-bet was determined by flow cytometry. Panels G and H show naïve CD4^+ T cells isolated from WT or KO mice, differentiated under Th1 conditions for 3 days. […] The expression of IFN-γ (panel G) and T-bet (panel H) were determined by flow cytometry. […]
For measurement of cytosolic acetyl-CoA, naïve CD4^+ T cells were differentiated under Th1 conditions for 2 days and then cultured in fresh T cell medium for another 24 h. […] Freshly isolated naïve WT and KO CD4^+ T cells were rested in T cell medium with 10 ng/mL IL-7 for 4 h at 37° C. in the incubator, and the level of acetyl-CoA was measured.
The subject of experiment [5] is CD4+ T cells differentiated under Th17 conditions. As to the kind of experiment: IL-17a expression in CD4+ T cells differentiated under Th17 conditions (flow cytometry). The format is cell-based, mouse. As to the method: Naïve WT or LDHA-deficient (KO) CD4^+ T cells were differentiated under Th17 conditions for 4 days. Increasing doses of GNE-140 were also included in the WT T cell culture. Cell viability was determined by a live/dead cell dye, and the percentage of live cell population is shown. In addition, cells were re-stimulated with PMA/ionomycin for 4 h. IL-17a and Foxp3 protein expression was examined by flow cytometry, and used as readouts for Th17 and Treg cell differentiation, respectively.
In panels A-C, naïve WT or LDHA-deficient (KO) CD4^+ T cells were differentiated under Th17 conditions for 3 days. Cells were re-stimulated with PMA/ionomycin for 4 h. […] Data represent mean±SD, n=2. Two-tailed unpaired t-test, **P≤0.01. […] In panels D-F, WT or KO mice were subjected to EAE induction by immunization with MOG peptide with CFA. […] Panel F is quantification of panel E; data represent mean±SD, n=4. […]
Naïve CD4 T cells (2.5×10^4) were isolated from spleen and peripheral lymph nodes of Ldha^fl/fl (WT) and CD4^CreLdha^fl/fl (KO) mice. […] Cytokines and transcription factors were analyzed by flow cytometry.
Cells from thymi, spleens, and lymph nodes were depleted of erythrocytes by hypotonic lysis. […] All samples were acquired with an LSR II flow cytometer (Becton, Dickinson) and analyzed with FlowJo software (TreeStar). […]

The subject of experiment [6] is experimental autoimmune encephalomyelitis (EAE). Nature of the experiment: Experimental autoimmune encephalomyelitis (EAE), mouse model of multiple sclerosis. As to conditions: WT mice, MOG peptide with CFA; 35 mg/kg/day intraperitoneally daily from day 7. The format is in vivo. As to the method:
In panels A-C, naïve WT or LDHA-deficient (KO) CD4^+ T cells were differentiated under Th17 conditions for 3 days. Cells were re-stimulated with PMA/ionomycin for 4 h. […] Data represent mean±SD, n=2. Two-tailed unpaired t-test, **P≤0.01. […] In panels D-F, WT or KO mice were subjected to EAE induction by immunization with MOG peptide with CFA. Clinical scoring in panel D: 0, no overt signs of disease; 1, limp tail; 2, partial hind-limb paralysis; 3, total hind-limb paralysis; 4, hind-limb paralysis and 75% body paralysis; 5, complete body paralysis, or moribund state, or death by EAE, or sacrifice for humane reasons. […] IL-17a and IFN-γ protein expression were examined by flow cytometry. Panel F is quantification of panel E; data represent mean±SD, n=4. Two-tailed unpaired t-test, ***P≤0.001. […] Naïve WT or KO CD4^+ T cells were differentiated under Th17 conditions for 3 days, and BMS 303141 was included in the culture for another 24 hours. Cells were re-stimulated with PMA/ionomycin for 4 h. IL-17a protein expression was examined by flow cytometry. […] WT mice were subjected to EAE induction by immunization with MOG peptide with CFA. BMS 303141 (35 mg/kg/day) was intraperitoneally injected daily, starting from day 7. Clinical scoring was the same as in panel D.

On to `CC(=O)[O-].[Na+]` [Acetate, sodium acetate], for which the “IFN-γ expression in KO T cells” value in experiment [1] is “corrected IFN-γ expression in KO T cells”. In addition, in experiment [2], the T-bet expression entry was “without affecting T-bet expression”. Also, the “H3K9Ac in the Ifng locus” value in experiment [3] was “normalization of H3K9Ac in Ifng promoter and enhancer regions”. Further, in experiment [4], the acetyl-CoA production result was “augmented acetyl-CoA production”.

As to `COc1ccc(-c2ccccc2)cc1NS(=O)(=O)c1cc(Cl)cc(Cl)c1O` [BMS 303141, 3,5-dichloro-2-hydroxy-N-(4-methoxy[1,1′-biphenyl]-3-yl)-benzenesulfonamide], in experiment [1], the IFN-γ expression entry is listed as “suppresses IFN-γ expression”. Further, the IL-17a production entry in experiment [5] (Th17 conditions for 3 days, BMS 303141 in the culture for another 24 hours, PMA/ionomycin 4 h) is on record as “repressed IL-17a production”. In experiment [6], the “protection from EAE (clinical scoring)” value is on record as “completely protected mice from EAE”.

With `CCCc1c(O)c(O)c(C(=O)O)c2cc(Cc3ccccc3)c(C)cc12` [FX11], the “inhibitory effect on IFN-γ expression when supplementing cells with acetate” value in experiment [1] (WT Th1 cells, FX11 for 24 h with 20 mM sodium acetate) was “fully nullified”. In experiment [1], the IFN-γ expression entry is recorded as “dose-dependently inhibited IFN-γ expression”.

As for `O=C1N[C@](c2ccc(N3CCOCC3)cc2)(c2ccsc2)CC(O)=C1Sc1ccccc1Cl` [GNE-140, (2R)-5-(2-chlorophenyl)sulfanyl-4-hydroxy-2-(4-morpholin-4-ylphenyl)-2-thiophen-3-yl-1,3-dihydropyridin-6-one], in experiment [5] (WT T cells under Th17 conditions with APCs, 0.3, 10 or 30 μM GNE-140, harvested day 4, PMA/ionomycin 4 h), the IL-17A expression result is given as “inhibited IL-17A expression in WT T cells in a dose-dependent manner”.

As to `CC(/C=C/C(=O)NO)=C\[C@@H](C)C(=O)c1ccc(N(C)C)cc1` [TSA], in experiment [1], the “IFN-γ expression in KO T cells” value is listed as “rectified IFN-γ expression in KO T cells”. Besides, in experiment [2], the T-bet expression entry was “without affecting T-bet expression”. In experiment [3], the “H3K9Ac in the Ifng locus” value is listed as “increased H3K9Ac in the Ifng locus”.
